Measured values reported in patent US20140080162A1, “FLUORESCENCE LIFETIME EPIGENETICS ASSAYS” (ALMAC SCIENCES (SCOTLAND) LIMITED, priority 2011, published 2014).
Like-named read-outs stand apart in the source and are kept apart here. Residues, ends and D or L forms follow the SMILES beside them. *: point of attachment. Propanoyl(3-(9AA-2-yl)) = Nc1c2ccccc2nc2ccc(CCC(=O)*)cc12

Assays:
G9a = molecular target: T1, G9a (Homo sapiens, UniProt Q96KQ7); assay: G9a FLT protease protection assay; assay type: biochemical; settings: SAM 100 μM, 2 h; for G9a concentration sufficient to confer complete protease protection: G9a (Abcam), 2 nM Endo-LysC
T1 construct: purchased Millipore; Abcam; BPS Bioscience (via AMSBio)
T1 sequence (Q96KQ7 1-1210): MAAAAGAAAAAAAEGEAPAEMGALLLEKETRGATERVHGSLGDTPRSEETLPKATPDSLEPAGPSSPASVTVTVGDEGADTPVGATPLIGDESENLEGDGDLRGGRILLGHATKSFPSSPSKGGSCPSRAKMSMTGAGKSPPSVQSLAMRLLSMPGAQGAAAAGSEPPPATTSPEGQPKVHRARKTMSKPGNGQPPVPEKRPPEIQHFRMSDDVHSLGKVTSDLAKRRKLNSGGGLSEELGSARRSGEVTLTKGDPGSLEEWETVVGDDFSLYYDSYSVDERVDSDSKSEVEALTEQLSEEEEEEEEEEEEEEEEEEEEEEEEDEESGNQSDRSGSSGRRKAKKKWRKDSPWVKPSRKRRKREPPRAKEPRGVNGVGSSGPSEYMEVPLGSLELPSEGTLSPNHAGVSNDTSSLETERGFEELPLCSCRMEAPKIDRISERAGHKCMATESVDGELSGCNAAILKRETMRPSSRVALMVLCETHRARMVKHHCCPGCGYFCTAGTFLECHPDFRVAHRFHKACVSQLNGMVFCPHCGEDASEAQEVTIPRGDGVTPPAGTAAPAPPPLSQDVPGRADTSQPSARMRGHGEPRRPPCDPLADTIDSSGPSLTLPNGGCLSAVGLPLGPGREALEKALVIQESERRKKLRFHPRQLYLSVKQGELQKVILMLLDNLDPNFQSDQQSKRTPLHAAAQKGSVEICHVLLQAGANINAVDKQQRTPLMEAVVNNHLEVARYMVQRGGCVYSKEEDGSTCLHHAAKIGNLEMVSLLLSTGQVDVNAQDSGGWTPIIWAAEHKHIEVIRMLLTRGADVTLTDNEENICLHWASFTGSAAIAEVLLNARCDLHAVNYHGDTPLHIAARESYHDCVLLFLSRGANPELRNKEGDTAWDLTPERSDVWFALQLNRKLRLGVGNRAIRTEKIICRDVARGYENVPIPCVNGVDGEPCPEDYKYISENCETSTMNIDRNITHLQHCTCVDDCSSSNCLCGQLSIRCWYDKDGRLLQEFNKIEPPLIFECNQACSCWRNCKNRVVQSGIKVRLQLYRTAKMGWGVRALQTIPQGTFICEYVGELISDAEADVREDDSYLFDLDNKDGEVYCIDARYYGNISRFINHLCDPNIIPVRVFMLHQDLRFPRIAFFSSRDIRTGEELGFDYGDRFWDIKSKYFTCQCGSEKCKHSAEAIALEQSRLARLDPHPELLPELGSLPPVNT
Description: Assays were performed at room temperature for 2 h and then FLTs measured using a NanoTaurus plate reader (Edinburgh Instruments Ltd.). Each well was then treated with 2 nM protease (Endo-LysC) (10 μl) and the plate incubated at room temperature for 60 min. The FLTs were then re-measured. Controls were included containing no G9a or no protease.
Peptides 4 and 9 were incubated with SAM (100 μM) and varying concentrations of G9a (Abcam) in 20 μl of assay buffer in a 384-well black microplate (Greiner). The assays were performed at room temperature for 2 h after which FLTs were measured as previously described. 2 nM Endo-LysC (10 μl per well) was then added and FLTs re-measured following 10 min and 60 min incubation with the protease.
The dependence of the G9a assay on SAM was investigated using both peptide 4 and 9 as substrates. Assays were performed in a 384-well microplate in assay buffer (20 μl) using either 25 nM or 10 nM G9a and 1 μM substrate. SAM concentrations were varied from 200 μM-0.4 μM and assays were incubated for 2 h at room temperature. On completion, Endo-LysC (2 nM) was added to each well and FLTs measured following a 10 min incubation period.
(§2) Reactions were performed in a 384-well microplate at room temperature for 2 h and stopped by the addition of Endo-LysC (2 nM).
Alternatively, assays were performed in a 384-well microplate at room temperature with an assay volume of 20 μl per well. To wells containing recombinant G9a enzyme in assay buffer (5 μl) was added peptide in assay buffer (10 μl). Reactions were started by the addition of SAM (5 μl). The plate was shaken and then sealed with a coverslip. […] The concentration of peptide was kept constant at 1 μM. Assays were started at different times and stopped together after 2 h by the addition of Endo-LysC (10 μl in assay buffer; final concentration 2 nM). Following incubation at room temperature for 10 min, the microplate was centrifuged at 500 rpm for 1 min and FLTs measured.
For inhibitor titrations, compounds (5 μl) were preincubated with G9a (5 μl) for 30 min at room temperature prior to addition of peptide (5 μl) and SAM (5 μl). Controls containing no SAM or no inhibitor were included.

Set7/9 [1] = molecular target: T2, Set7/9 (Homo sapiens, UniProt Q8WTS6); assay: Set7/9 FLT protease protection assay; assay type: biochemical; settings: for overall lifetime change between substrate and product / maximum range of the assay: Set7/9 time-course, 1 μM peptide
T2 construct: purchased BPS BioScience (via AMSBio, UK)
T2 sequence (Q8WTS6 1-366): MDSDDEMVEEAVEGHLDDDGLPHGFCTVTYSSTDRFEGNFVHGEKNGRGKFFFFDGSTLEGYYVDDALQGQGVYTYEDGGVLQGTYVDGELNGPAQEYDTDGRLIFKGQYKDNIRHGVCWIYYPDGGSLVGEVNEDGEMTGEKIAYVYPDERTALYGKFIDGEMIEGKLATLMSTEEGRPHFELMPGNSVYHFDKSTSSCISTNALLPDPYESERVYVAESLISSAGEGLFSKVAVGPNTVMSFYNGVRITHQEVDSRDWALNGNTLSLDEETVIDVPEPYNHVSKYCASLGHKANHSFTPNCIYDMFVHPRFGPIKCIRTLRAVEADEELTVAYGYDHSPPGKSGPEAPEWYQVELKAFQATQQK
Description: The assay was performed at room temperature and samples taken after 0 h, 2 h, and 6 h time intervals respectively.
10 μl of Endo-LysC (final concentration 2 nM) was added to each well and the plate incubated at room temperature for 15 mins before the FLTs were measured using a NanoTaurus plate reader. Peptide only controls were included at the same concentration for comparison.
Assays were performed in a 20 μl volume in a 384-well black microplate and contained peptide 12 (1 μM) and Set7/9 enzyme (100 nM, 50 nM, 25 nM, or 12.5 nM) in assay buffer. Reactions were stopped at regular intervals by the addition of 10 μl Endo-LysC (final concentration 2 nM). FLTs were measured following 15 min incubation with Endo-LysC at room temperature. All measurements were performed in duplicate using a NanoTaurus plate reader.
The dependence of the Set7/9 assay on SAM co-factor was investigated using peptide 13 as the substrate. The assay was performed in a 384-well microplate at room temperature for 2 h in assay buffer (20 μl) using 25 nM Set7/9 and 1 μM substrate. SAM concentrations were varied from 100 μM-1.7 nM. On completion, Endo-LysC (2 nM) was added to each well and FLTs measured following a 20 min incubation period.
as §2
Alternatively, assays were performed in a 384-well microplate at room temperature with an assay volume of 20 μl per well. To wells containing recombinant Set7/9 enzyme and peptide 12 or 13 in assay buffer (10 μl) was added SAM (10 μl) in assay buffer. Controls containing peptide only were also included. The plate was shaken and then sealed with a coverslip. The final concentration of Set7/9 in the assay varied between 100 nM and 12.5 nM whilst the concentration of peptide and SAM were kept constant at 1 μM and 100 μM respectively. Assays were started at different times and stopped together after 120 min by the addition of Endo-LysC (10 μl in assay buffer; final concentration 2 nM). Following incubation at room temperature for 15 min, the microplate was centrifuged at 500 rpm for 1 min and FLTs measured. All measurements were performed in duplicate.
For inhibitor titrations, compounds (5 μl) were preincubated with Set7/9 and peptide 13 (5 μl) for 10 min at room temperature prior to addition of SAM (10 μl). Controls containing no SAM or no inhibitor were included.

Set7/9 [2] = molecular target: T2, Set7/9; settings: literature (Gauthier et al. 2012), lower concentration of SAM; read-out: reported IC50; cited from earlier work
PAD4 = molecular target: T3, PAD4 (Homo sapiens, UniProt Q9UM07); assay: PAD4 FLT protease protection assay; assay type: biochemical; settings: 15 μM peptide, 30 nM PAD4, diluted to 1 μM; 10 nM trypsin 10 min
T3 construct: purchased Origene (via Insight Biotechnology)
Description: With a suitable HPLC method in hand, PAD4 assays were set up for each of the peptide substrates and aliquots taken at regular time intervals with product formation monitored by RP-HPLC. Each assay was performed in a micro-centrifuge tube containing 15 μM peptide and 30 nM PAD4 (Origene) in assay buffer (300 μl). The assays were performed at room temperature and samples taken at 0 min, 30 min, and 60 min time intervals.
In order to test if citrullination of peptides 1 and 3 by PAD4 had conferred protection against trypsin, the assay mixtures for these peptides (described above) were diluted to 1 μM concentration with assay buffer and 20 μl of each added to three wells of a 384-well black microplate. The FLTs were measured using the NanoTaurus plate reader as described previously. 10 μl of trypsin (final concentration 10 nM) was then added to each well and the plate incubated at room temperature for 10 mins before the FLTs were re-measured. Peptide only controls were included at the same concentration for comparison.
The dependence of the PAD4 assay on peptide substrate concentration was investigated. […] From FIG. 73, a KM of 180 nM was determined for substrate 1. […]
(§1) Where citrullination of the peptide substrate was confirmed, the assay mixtures were diluted 15-fold with assay buffer and transferred to a 384-well microplate (20 μl per well) and FLTs measured. […] FLTs were then re-measured. […]

PAD2 = molecular target: T4, PAD2 (Homo sapiens, UniProt Q9Y2J8); assay: PAD2 FLT protease protection assay; assay type: biochemical; settings: 15 μM peptide, 30 nM PAD2, diluted to 1 μM; 10 nM trypsin 10 min
T4 construct: purchased Modiquest Research
Description: Accordingly, peptide 1 (15 μM) was incubated with PAD2 (30 nM) in assay buffer (20 mM Tris pH 8, 200 μM CaCl2, 5 mM DTT, 0.01% CHAPS) (300 μl) and aliquots taken at regular time intervals and analysed by RP-HPLC. The assays were performed at room temperature and samples taken at 0 min, 30 min, and 120 min time intervals
In order to test if citrullination of peptide 1 by PAD2 had conferred protection against trypsin, the assay mixture was diluted to 1 μM concentration with assay buffer and 20 μl added to three wells of a 384-well black microplate. 10 μl of trypsin (final concentration 10 nM) was added to each well and the plate incubated at room temperature for 10 mins before the fluorescence lifetimes (FLTs) were measured using the NanoTaurus plate reader as described in the Experimental section. Peptide only controls were included at the same concentration for comparison.
For HPLC monitoring, assays were performed at room temperature in micro-centrifuge tubes with a total assay volume of 300 μl. Reactions were started by addition of peptide 1 to solutions containing recombinant PAD2 enzyme. […]
as §1

PRMT5 = molecular target: T5, PRMT5 (Homo sapiens, UniProt O14744); assay: PRMT5 FLT protease protection assay; assay type: biochemical
T5 construct: purchased BPS BioScience (via AMSBio, UK)
T5 sequence (O14744 whole entry): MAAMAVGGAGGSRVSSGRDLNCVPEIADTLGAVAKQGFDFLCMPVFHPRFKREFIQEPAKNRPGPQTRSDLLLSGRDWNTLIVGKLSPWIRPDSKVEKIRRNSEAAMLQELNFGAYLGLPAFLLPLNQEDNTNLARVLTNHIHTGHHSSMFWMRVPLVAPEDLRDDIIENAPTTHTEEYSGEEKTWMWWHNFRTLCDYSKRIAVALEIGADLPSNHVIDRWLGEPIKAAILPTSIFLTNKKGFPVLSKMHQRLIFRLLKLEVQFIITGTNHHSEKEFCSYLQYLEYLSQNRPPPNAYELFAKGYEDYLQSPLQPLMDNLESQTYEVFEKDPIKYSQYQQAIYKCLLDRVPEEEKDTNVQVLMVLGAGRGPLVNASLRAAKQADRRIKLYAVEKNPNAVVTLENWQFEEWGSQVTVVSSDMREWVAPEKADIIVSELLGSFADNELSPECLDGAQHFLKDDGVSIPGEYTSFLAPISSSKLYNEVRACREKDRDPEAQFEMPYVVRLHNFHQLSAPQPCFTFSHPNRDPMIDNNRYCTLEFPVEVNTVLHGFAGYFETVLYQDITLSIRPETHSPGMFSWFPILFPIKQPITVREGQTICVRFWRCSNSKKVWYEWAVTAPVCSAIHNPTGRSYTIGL
Description: The assay was performed at room temperature and samples taken after 0 h, 3.5 h, and 17.5 h time intervals respectively.
10 μl of Endo-ArgC (final concentration 10 nM) was added to each well and the plate incubated at room temperature for 60 mins before FLTs were measured. Peptide only controls were included at the same concentration for comparison.
Conditions were as follows: sinefungin (2 mM-0.1 μM), PRMT5 (50 nM), SAM (10 μM) and peptide 15 (1 μM) in assay buffer (20 μl). Reactions were performed in triplicate in a 384-well microplate at room temperature for 3 h and stopped by the addition of Endo-ArgC (1 nM).
Endo-ArgC (10 μl in assay buffer) was then added to each well and the plate incubated at room temperature for 15 mins. FLTs were then re-measured. All measurements were performed in triplicate and the final concentration of Endo-ArgC in the wells was 10 nM.
For inhibitor titrations, compounds (5 μl) were preincubated with PRMT5/peptide 15 (5 μl) for 30 min at room temperature prior to the addition of SAM (5 μl). Assays were run for 3 h at room temperature and stopped by the addition of 10 μl Endo-ArgC. FLTs were measured following a 1 h incubation at room temperature. Controls containing no PRMT5 or no inhibitor were also included. All measurements were performed in triplicate.

T3 sequence (Q9UM07 whole entry): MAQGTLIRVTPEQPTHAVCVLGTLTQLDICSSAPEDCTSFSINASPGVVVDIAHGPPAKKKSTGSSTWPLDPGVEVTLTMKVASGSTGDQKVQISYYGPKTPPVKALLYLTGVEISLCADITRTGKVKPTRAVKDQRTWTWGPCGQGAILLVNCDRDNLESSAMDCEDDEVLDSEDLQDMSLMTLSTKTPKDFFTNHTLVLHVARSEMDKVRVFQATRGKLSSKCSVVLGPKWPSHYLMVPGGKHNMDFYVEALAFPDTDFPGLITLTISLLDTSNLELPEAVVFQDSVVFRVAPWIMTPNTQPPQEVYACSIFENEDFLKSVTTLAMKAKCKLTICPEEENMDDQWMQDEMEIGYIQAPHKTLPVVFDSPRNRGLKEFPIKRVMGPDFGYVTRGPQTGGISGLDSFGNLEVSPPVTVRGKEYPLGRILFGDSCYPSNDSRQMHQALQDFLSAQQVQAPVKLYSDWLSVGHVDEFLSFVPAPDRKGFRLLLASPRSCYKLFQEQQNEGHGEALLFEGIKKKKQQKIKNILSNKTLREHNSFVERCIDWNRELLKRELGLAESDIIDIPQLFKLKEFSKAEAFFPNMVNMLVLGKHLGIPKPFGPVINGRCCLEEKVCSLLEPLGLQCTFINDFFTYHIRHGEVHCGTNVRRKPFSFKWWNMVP
T4 sequence (Q9Y2J8 whole entry): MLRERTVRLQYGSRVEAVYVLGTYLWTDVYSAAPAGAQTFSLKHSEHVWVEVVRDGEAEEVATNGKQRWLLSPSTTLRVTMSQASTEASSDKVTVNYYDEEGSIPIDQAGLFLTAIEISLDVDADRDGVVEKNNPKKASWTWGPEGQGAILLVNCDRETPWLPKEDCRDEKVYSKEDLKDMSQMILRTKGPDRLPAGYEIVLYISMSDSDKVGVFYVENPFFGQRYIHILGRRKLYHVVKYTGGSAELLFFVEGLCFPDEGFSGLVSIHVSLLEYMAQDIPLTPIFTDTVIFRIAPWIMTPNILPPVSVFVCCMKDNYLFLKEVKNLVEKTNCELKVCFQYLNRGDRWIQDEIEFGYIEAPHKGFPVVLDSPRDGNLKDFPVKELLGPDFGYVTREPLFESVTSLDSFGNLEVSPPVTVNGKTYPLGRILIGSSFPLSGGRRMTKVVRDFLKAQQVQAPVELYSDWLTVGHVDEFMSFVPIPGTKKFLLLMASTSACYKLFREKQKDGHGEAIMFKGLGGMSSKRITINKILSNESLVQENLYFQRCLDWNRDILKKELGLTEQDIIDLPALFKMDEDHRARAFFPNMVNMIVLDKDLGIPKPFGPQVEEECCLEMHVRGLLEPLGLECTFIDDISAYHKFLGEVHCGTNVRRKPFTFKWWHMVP

For 9AA-TARK^9STGW-CONH2 [peptide 4], the “G9a concentration sufficient to confer complete protease protection” value (G9a) was 50 nM.

In the case of `Nc1ncnc2c1ncn2[C@@H]1O[C@H](CSCC[C@H](N)C(=O)O)[C@@H](O)[C@H]1O` [SAH, S-adenosylhomocysteine, reference compound], the IC50 (Set7/9 [1]; peptide 13 (1 μM), Set7/9 50 nM, SAM 500 nM, 2 h) is listed as 37 µM and the IC50 (Set7/9 [2]) is listed as 16 µM.

For `C[C@@H](O)[C@H](NC(=O)[C@H](CO)NC(=O)[C@H](CCC(N)=O)NC(=O)CCc1ccc2nc3ccccc3c(N)c2c1)C(=O)N[C@@H](CCCNC(=N)N)C(=O)NCC(=O)N[C@@H](CO)C(=O)NCC(=O)N[C@@H](Cc1c[nH]cn1)C(=O)N[C@@H](Cc1c[nH]c2ccccc12)C(=O)N[C@@H](CCCCN)C(=O)N[C@@H](CCCCN)C(N)=O` [peptide 1] ({Propanoyl(3-(9AA-2-yl))}-QSTRGSGHWKK-NH2), the “increase in FLT after trypsin for peptide exposed to PAD4” value (PAD4) was “no increase in FLT” and the “increase in FLT after trypsin for peptide exposed to PAD2” value (PAD2) was “no increase in FLT”.

With `C[C@@H](O)[C@H](NC(=O)[C@H](CO)NC(=O)[C@H](CCC(N)=O)NC(=O)[C@H](Cc1c[nH]cn1)NC(=O)[C@@H](N)CCCCNC(=O)CCc1ccc2nc3ccccc3c(N)c2c1)C(=O)N[C@@H](CCCNC(=N)N)C(=O)NCC(=O)N[C@@H](CO)C(=O)NCC(=O)N[C@@H](Cc1c[nH]cn1)C(=O)N[C@@H](Cc1c[nH]c2ccccc12)C(=O)N[C@@H](CCCCN)C(=O)N[C@@H](CCCCN)C(N)=O` [peptide 3] (H-K(Propanoyl(3-(9AA-2-yl)))HQSTRGSGHWKK-NH2; N-terminus assumed) the “increase in FLT after trypsin for peptide exposed to PAD4” value (PAD4) was “no increase in FLT”.

In the case of `Nc1ncnc2c1ncn2[C@@H]1O[C@H](C[C@@H](N)CC[C@H](N)C(=O)O)[C@@H](O)[C@H]1O` [sinefungin, reference compound], the IC50 (PRMT5; peptide 15 (1 μM), PRMT5 50 nM, SAM 10 μM, 3 h) is reported as 13 µM.

For “Ac-WSGRGKGGK(9AA)GLGKGGAKRHRK-CONH2 [peptide 15]”, the “increase in FLT after Endo-ArgC for peptide exposed to PRMT5” value (PRMT5; 150 nM PRMT5, 100 μM SAM, reaction not complete, 10 nM Endo-ArgC 60 min) was 4.7 ns.

For “K(9AA)ARTK(Me)QTARK^9STGGW-CONH2 [peptide 9]”, the “G9a concentration sufficient to confer complete protease protection” value (G9a) was 50 nM and the “protease protection after G9a treatment” value (G9a; G9a (Millipore) 500 nM, 2 nM Endo-LysC 60 min) was “complete protease protection”.

With “WARTKQTARK(9AA)STGGKAPRKQLAK-CONH2 [peptide 12]” the “increase in FLT after Endo-LysC for peptide exposed to Set7/9” value (Set7/9 [1]; 15 μM peptide, 172 nM Set7/9, 100 μM SAM, diluted to 1 μM, 2 nM Endo-LysC 15 min) was “no significant increase in FLT” and the “overall lifetime change between substrate and product / maximum range of the assay” value (Set7/9 [1]; 2 nM Endo-LysC 15 min) was “approximately 2.4 ns”.

In the case of “WRTKQTARK(9AA)STGGKAPRKQLAK-CONH2 [peptide 13]”, the “overall lifetime change between substrate and product / maximum range of the assay” value (Set7/9 [1]; 2 nM Endo-LysC 15 min) is reported as 4 ns.
